Reference: patent US10745382B2 (BRISTOL-MYERS SQUIBB COMPANY, priority 2015, dated 2020)
Where two headings read alike, the source gives them in different places.

Biological target: T1, PD-1/PD-L1 (Homo sapiens, UniProt Q9NZQ7)
T1 construct: made in house; host or cells: HEK293T
Assay: PD-1/PD-L1 Homogenous Time-Resolved Fluorescence (HTRF) binding assay
Settings: PD-L1-His 10 nM, PD-1-Ig 20 nM, read-out: Range or IC50
How it was run: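 dPBS + 0.1% BSA + 0.05% Tween-20 buffer; Eu-cryptate anti-Ig 1 nM final, APC anti-His 20 nM final; HTRF read. Counter-assays: PD-1-Ig/PD-L2-His 20 & 5 nM, CD80-His/PD-L1-Ig 100 & 10 nM.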

T1 sequence (Q9NZQ7 with tags, fused parts or gaps): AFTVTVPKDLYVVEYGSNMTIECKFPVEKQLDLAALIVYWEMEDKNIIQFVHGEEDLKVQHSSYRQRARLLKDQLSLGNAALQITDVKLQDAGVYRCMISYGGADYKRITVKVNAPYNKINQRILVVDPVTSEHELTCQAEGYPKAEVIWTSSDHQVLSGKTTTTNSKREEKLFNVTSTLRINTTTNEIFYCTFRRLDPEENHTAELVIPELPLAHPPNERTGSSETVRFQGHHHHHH

IC50 (value given as range class) [nM] | IC50 (numeric IC50) [nM] | SMILES
0.21 to 10 | – | Cc1c(COc2cc(OCc3cncc(C#N)c3)c(CN[C@@](C)(CO)C(=O)O)cc2Cl)cccc1-c1cccc(OCCCN2CCC[C@H](O)C2)c1C [Example 2262, (2S)-2-(5-chloro-2-((5-cyanopyridin-3-yl)methoxy)-4-((3′-(3-((S)-3-hydroxypiperidin-1-yl)propoxy)-2,2′-dimethylbiphenyl-3-yl)methoxy)benzylamino)-3-hydroxy-2-methylpropanoic Acid]
0.21 to 10 | – | Cc1c(COc2cc(OCc3cncc(C#N)c3)c(CN[C@@](C)(CO)C(=O)O)cc2Cl)cccc1-c1cccc(OCCCN2CCN(C)C(=O)C2)c1C [Example 2328, (S)-2-((5-chloro-2-((5-cyanopyridin-3-yl)methoxy)-4-((2,2′-dimethyl-3′-(3-(4-methyl-3-oxopiperazin-1-yl)propoxy)-[1,1′-biphenyl]-3-yl)methoxy)benzyl)amino)-3-hydroxy-2-methylpropanoic Acid]
– | 63 | CC(=O)NC1CCN(CCCOc2cccc(-c3cccc(COc4cc(O)c(CO)cc4Cl)c3C)c2Cl)C1 (stereo not drawn) [Example 2020, N-(1-(3-((2-chloro-3′-((2-chloro-5-hydroxy-4-(hydroxymethyl)phenoxy)methyl)-2′-methyl-[1,1′-biphenyl]-3-yl)oxy)propyl)pyrrolidin-3-yl)acetamide]
